Patent US20130338129A1, “METHOD OF TREATING REFRACTORY CANCER” (Niiki Pharma Inc., priority 2010, published 2013)
Read-outs that look alike come from different tables or passages of the source. Each block holds one compound with its values, some of them ahead of it.

Key:
[1] = tested on: Non-Small Cell Lung Cancer; assay: Human clinical trial (US), refractory lung cancer patients; assay type: in vivo; settings: 320 mg/m^2 i.v. day 1, 8, 15 of 28-day cycle, 4 cycles
Description: Patient No. 04-005 was a person with Stage IV Non-Small Cell Lung Cancer, moderately differentiated adenocarcinoma histology, diagnosed in April 2006. […] Combination chemotherapy with docetaxel, carboplatin and bevacizumab was administered between September and December 2006, with which the patient achieved a complete response. The patient suffered a disease recurrence and was started on sorafenib in April 2008. Sorafenib was discontinued in May 2008 due to disease progression. […] Between November 2009 and January 2010, the patient received gemcitibine.
Patient No. 04-011 was a person with Stage IIIB Non-Small Cell Lung Cancer, poorly differentiated adenocarcinoma histology, diagnosed in January 2005. Initial therapy consisted of carboplatin, gemcitibine and zoledronic acid from January 2005 through August 2005, with a partial response. […] In December 2005, chest radiotherapy with 54 Gy, with paclitaxel radiosensitization, was initiated and completed by February 2006. Through the remainder of 2006, the patient received a course of single agent erlotinib and a course of single agent pemetrexed; best response to these therapies is unknown. In January 2007, combination therapy with gemcitibine and navelbine was initiated, but their best response was disease progression. Experimental therapy with PTK787 (vatalanib) and imatinib was initiated in February 2007. […]

[2] = tested on: Human malignant melanoma cell line G361; assay: MTT Cell Proliferation Assay, G361 cells; settings: read-out: IC50 (concentration of agent that inhibits cell growth by 50%)
Description: (§1) Human lung carcinoma cell line A549 plates were seeded with 2,500 cells/well, and the cells were grown in Ham's F12 medium containing 10% FBS and 1% penicillin/strep/glutamine. Cultures were maintained in a 37° C. humidified 5% CO2/95% air atmosphere. Stock cultures were allowed to grow to 70-80% confluence for this study. […] 1000 μl of medium was removed from each well at 72 hours post-treatment and 10 μl MTT reagent was added to each well. The plates were incubated at 37° C. for 4 hours and then 100 μl of detergent was added. The plates were left overnight at room temperature in the dark and was read on a plate reader using SoftMax® Pro (version 5.2, Molecular Devices).
The absorbance data was analyzed as follows: Absorbance values were converted to Percent of Control and plotted against test agent concentrations for IC50 calculations using SoftMax® Pro (version 5.2, Molecular Devices). The plate blank signal average was subtracted from all wells prior to calculating the Percent of Control. Percent of Control values were calculated by dividing the absorbance values for each test well by the No Drug Control average (column 11 values; cells+vehicle control) and multiplying by 100. Plots of Compound Concentration versus Percent of Control were analyzed using the 4-parameter equation to obtain IC50 values and other parameters that describe the sigmoidal dose response curve. […]

[3] = tested on: colorectal adenocarcinoma; assay: Human clinical trial (UK), refractory colorectal cancer patient; assay type: in vivo; settings: person, colorectal adenocarcinoma failed oxaliplatin, capecitibine, cetuximab, irinotecan, panitumumab; 500 mg/m^2 i.v. daily days 1-4 of 21-day cycle, 4 cycles
Source text: The trial enrolled a person with colorectal adenocarcinoma, adenocystic histology, incompletely resected in September 2007. Their initial therapy consisted of oxaliplatin, capecitibine and cetuximab between October 2007 and February 2009 with best response of progressive disease. […] They then were changed to irinotecan and panitumumab, administered between April 2009 and October 2009, again with best response progressive disease.

[4] = tested on: human lung carcinoma cell line H1975; assay: MTT Cell Proliferation Assay, H1975 cells; assay type: cell-based
Description: (“Test Drug”) was 41 μM (FIG. 1).
Table 2 below summarizes the activities on the two compounds in the different lung cancer cell lines tested.

[5] = tested on: Human lung carcinoma cell line A549; assay: MTT Cell Proliferation Assay, A549 cells; assay type: cell-based; settings: for IC50: A549 cells, MTT, 72 hours post-treatment; for IC50 Ratio (A549/H1975): ratio of IC50 in A549 to IC50 in H1975
Description: as §1
The absorbance data was analyzed as follows: Absorbance values were converted to Percent of Control and plotted against test agent concentrations for IC50 calculations using SoftMax® Pro (version 5.2, Molecular Devices). The plate blank signal average was subtracted from all wells prior to calculating the Percent of Control. Percent of Control values were calculated by dividing the absorbance values for each test well by the No Drug Control average (column 11 values; cells+vehicle control) and multiplying by 100. Plots of Compound Concentration versus Percent of Control were analyzed using the 4-parameter equation to obtain IC50 values and other parameters that describe the sigmoidal dose response curve.
The IC50 values for the test agents were estimated by curve-fitting the data using the following four parameter-logistic equation:
wherein “Top” is the maximal % of control absorbance (100%), “Bottom” is the minimal % of control absorbance at the highest agent concentration (down to zero), Y is the Percent of Control absorbance, X is the test agent Concentration, IC50 is the concentration of agent that inhibits cell growth by 50% compared to the control cells, n is the slope of the curve.

[6] = tested on: human lung carcinoma cell line H1975; settings: T790M mutation in the EGFR gene; Bao et al. 2009; cited from earlier work
A549 cells = settings: Denlinger et al. 2004; cited from earlier work

SMILES: [Cl][Ru-]([Cl])([Cl])[Cl].[Na+].c1ccc2[nH]ncc2c1.c1ccc2[nH]ncc2c1
best response ([1]; Patient No. 04-005, Stage IV NSCLC): stable disease
best response ([1]; Patient No. 04-011, Stage IIIB NSCLC): stable disease
IC50 ([2]; G361 melanoma cells, MTT, 72 hours post-treatment): 41 µM
best response [3]: stable disease
IC50 ([4]; 72 hours post-treatment): 33.6 µM
IC50 [5]: 9.9 µM
IC50 Ratio (A549/H1975) [5]: 0.29

IC50 ([4]; Homo sapiens, NCI-H1975, 72 hours post-treatment): 0.005 µM
IC50 ([5]; Homo sapiens): 9.92 µM
IC50 Ratio (A549/H1975) [5]: 1984
SMILES: CC(=O)O[C@H]1C(=O)[C@@]2(C)[C@H]([C@H](OC(=O)c3ccccc3)[C@]3(O)C[C@H](OC(=O)[C@H](O)[C@@H](NC(=O)c4ccccc4)c4ccccc4)C(C)=C1C3(C)C)[C@]1(OC(C)=O)CO[C@@H]1C[C@@H]2O [Paclitaxel, paclitaxel]

SMILES: C#Cc1cccc(Nc2ncnc3cc(OCCOC)c(OCCOC)cc23)c1 [erlotinib]
sensitivity of H1975 cells [6]: resistant

SMILES: COc1cc2ncnc(Nc3ccc(F)c(Cl)c3)c2cc1OCCCN1CCOCC1 [gefitinib]
sensitivity of H1975 cells [6]: resistant

SMILES: Nc1ccn([C@@H]2O[C@H](CO)[C@@H](O)C2(F)F)c(=O)n1 [gemcitabine]
sensitivity of A549 cells (A549 cells): inherently resistant

IC50 ([2]; Homo sapiens, G-361, 72 h): 199 µM
SMILES: Cn1nnc2c(C(N)=O)ncn2c1=O [temozolomide]
